From ChEMBL document CHEMBL1137909, “Synthesis and in vitro evaluation of (S)-2-([11C]methoxy)-4-[3-methyl-1-(2-piperidine-1-yl-phenyl)-butyl-carbamoyl]-benzoic acid ([11C]methoxy-repaglinide): a potential beta-cell imaging agent” (Bioorg Med Chem Lett, 2004)
pIC50, pKd: −log10 of the molar value.

Experiments:
[1] = species on record: Rattus norvegicus; experiment: In vitro ability to stimulate insulin was determined at (5 mM glucose+0.1 uM compound); assay type: functional
[2] = species on record: Rattus norvegicus; experiment: In vitro ability to stimulate insulin was determined at (15 mM glucose); assay type: functional
[3] = target: T1, ATP-binding cassette sub-family C member 8 (Homo sapiens, UniProt Q09428); experiment: Displacement of [3H]glibenclamide from COS-1 cells expressing Sulfonylurea receptor 1 (SUR-1); assay type: cell-based
T1 sequence (Q09428 whole entry): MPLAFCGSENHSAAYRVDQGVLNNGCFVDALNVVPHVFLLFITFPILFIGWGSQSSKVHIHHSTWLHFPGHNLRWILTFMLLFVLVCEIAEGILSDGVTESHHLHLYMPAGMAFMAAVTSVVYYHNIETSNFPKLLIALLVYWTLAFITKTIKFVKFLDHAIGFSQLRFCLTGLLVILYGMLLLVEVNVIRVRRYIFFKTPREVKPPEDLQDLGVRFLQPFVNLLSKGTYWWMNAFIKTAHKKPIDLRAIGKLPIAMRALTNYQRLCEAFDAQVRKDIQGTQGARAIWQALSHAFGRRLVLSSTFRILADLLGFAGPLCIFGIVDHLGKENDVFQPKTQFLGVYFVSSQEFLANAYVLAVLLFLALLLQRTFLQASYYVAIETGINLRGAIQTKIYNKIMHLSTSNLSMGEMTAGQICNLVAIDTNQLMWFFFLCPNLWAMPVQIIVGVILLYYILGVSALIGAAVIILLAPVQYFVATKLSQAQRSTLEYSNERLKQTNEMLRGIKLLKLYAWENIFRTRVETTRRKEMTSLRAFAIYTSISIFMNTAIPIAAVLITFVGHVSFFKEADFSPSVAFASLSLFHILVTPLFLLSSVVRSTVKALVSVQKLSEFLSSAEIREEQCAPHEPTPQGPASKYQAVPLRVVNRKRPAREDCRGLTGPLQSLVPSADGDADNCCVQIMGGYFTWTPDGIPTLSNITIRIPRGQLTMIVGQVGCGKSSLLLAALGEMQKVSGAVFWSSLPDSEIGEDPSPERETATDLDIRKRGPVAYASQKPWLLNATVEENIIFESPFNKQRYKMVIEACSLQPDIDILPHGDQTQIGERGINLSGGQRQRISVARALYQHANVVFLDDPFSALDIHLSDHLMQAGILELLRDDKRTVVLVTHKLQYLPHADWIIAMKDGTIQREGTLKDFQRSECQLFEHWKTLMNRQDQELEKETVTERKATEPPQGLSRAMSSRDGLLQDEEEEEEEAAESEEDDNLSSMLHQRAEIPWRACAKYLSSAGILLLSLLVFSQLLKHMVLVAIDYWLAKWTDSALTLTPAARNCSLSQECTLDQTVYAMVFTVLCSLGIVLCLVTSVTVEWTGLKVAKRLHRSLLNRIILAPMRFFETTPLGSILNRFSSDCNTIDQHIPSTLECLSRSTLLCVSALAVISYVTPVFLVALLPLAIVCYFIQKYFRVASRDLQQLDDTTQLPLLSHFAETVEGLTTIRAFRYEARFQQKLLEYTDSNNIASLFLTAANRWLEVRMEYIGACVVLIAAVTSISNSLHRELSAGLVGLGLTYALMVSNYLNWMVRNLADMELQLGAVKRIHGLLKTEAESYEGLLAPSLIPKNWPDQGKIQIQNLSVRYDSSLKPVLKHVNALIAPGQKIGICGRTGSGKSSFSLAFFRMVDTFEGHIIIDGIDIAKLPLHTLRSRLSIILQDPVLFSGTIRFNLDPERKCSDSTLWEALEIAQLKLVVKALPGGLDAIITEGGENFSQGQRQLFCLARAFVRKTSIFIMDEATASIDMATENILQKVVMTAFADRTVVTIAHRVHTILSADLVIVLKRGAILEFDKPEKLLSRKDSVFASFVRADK

[4] = species on record: Rattus norvegicus; experiment: Percent relative stimulation index to stimulate insulin was determined; assay type: functional
[5] = species on record: Rattus norvegicus; experiment: Percent stimulation index to stimulate insulin was determined; assay type: functional
[6] = target: T1, ATP-binding cassette sub-family C member 8; experiment: In vitro displacement of [3H]glibenclamide (IC50=0.61) from COS-1 cells expressing Sulfonylurea receptor 1 (SUR-1); assay type: cell-based

| pKd [3] | pIC50 [6] | SMILES | Insulin release [1] [ng/islet/1h] | Insulin release [2] [ng/islet/1h] | Relative stimulation index [4] [%] | Stimulation index [5] [fold] |
| --- | --- | --- | --- | --- | --- | --- |
| 7.30 | 6.97 | CCOc1cc(CC(=O)N[C@@H](CC(C)C)c2ccccc2N2CCCCC2)ccc1C(=O)O [REPAGLINIDE] | 2.1 | 4 | 63 | 1.9 |
| 6.87 | 6.55 | CC(C)C[C@H](NC(=O)Cc1ccc(C(=O)O)c(OCCF)c1)c1ccccc1N1CCCCC1 |  |  |  |  |
| 7.08 | 6.79 | COc1cc(CC(=O)N[C@@H](CC(C)C)c2ccccc2N2CCCCC2)ccc1C(=O)O | 2 | 4 | 64 | 2 |
